Where two headings read alike, the source gives them in different places.
Key:
Assay in all cases: Kinase panel profiling at 1 µmol/L (MSA or IMAP), percentage inhibition
Format in all cases: biochemical
[1] = biological target: T1, panel of 255 wild-type kinases (Homo sapiens, UniProt Q9NRM7); conditions: read-out: %-inhibition at 1 µmol/L, LATS2
T1 sequence (Q9NRM7 1-1088): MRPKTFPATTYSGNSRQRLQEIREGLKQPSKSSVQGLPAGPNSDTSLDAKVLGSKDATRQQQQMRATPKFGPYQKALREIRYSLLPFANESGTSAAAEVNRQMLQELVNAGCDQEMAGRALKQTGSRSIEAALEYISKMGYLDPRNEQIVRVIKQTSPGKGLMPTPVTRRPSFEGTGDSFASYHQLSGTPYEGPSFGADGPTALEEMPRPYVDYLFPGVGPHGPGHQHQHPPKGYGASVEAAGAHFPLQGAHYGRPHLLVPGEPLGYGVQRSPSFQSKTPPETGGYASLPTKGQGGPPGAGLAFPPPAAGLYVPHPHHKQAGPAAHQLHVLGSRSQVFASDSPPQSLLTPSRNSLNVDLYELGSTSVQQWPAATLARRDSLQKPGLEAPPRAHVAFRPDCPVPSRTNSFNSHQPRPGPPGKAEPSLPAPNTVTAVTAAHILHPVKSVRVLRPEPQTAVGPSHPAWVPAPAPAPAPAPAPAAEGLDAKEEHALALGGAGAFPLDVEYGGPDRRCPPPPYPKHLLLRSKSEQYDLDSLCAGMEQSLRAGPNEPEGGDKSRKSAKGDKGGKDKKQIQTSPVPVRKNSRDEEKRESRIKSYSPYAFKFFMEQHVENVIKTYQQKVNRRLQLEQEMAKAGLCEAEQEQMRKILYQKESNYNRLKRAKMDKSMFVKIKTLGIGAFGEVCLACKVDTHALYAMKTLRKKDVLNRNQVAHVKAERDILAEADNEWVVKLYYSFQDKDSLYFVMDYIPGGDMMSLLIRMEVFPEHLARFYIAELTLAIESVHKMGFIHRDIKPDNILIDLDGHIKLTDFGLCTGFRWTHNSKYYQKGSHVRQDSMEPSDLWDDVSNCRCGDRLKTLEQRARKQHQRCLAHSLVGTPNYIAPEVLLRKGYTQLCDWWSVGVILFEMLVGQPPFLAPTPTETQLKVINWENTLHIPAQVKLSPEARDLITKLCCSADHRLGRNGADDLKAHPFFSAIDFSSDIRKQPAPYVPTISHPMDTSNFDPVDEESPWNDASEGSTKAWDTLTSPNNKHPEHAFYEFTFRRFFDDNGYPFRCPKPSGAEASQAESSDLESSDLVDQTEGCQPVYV

[2] = biological target: panel of 255 wild-type kinases (Homo sapiens, UniProt P68400); conditions: read-out: %-inhibition at 1 µmol/L, CK2α1/β
[3] = biological target: panel of 255 wild-type kinases (Homo sapiens, UniProt P51617); conditions: read-out: %-inhibition at 1 µmol/L, IRAK1
[4] = biological target: panel of 255 wild-type kinases (Homo sapiens, UniProt P00519); conditions: read-out: %-inhibition ABL
[5] = biological target: panel of 255 wild-type kinases (Homo sapiens, UniProt Q16512); conditions: read-out: %-inhibition at 1 µmol/L, PKN1
[6] = biological target: panel of 255 wild-type kinases (Homo sapiens, UniProt Q9Y2H1); conditions: read-out: %-inhibition, NDR2
[7] = biological target: T2, panel of 255 wild-type kinases (Homo sapiens, UniProt Q9BXA7); conditions: read-out: %-inhibition at 1 µmol/L, TSSK1
T2 sequence (Q9BXA7 1-367): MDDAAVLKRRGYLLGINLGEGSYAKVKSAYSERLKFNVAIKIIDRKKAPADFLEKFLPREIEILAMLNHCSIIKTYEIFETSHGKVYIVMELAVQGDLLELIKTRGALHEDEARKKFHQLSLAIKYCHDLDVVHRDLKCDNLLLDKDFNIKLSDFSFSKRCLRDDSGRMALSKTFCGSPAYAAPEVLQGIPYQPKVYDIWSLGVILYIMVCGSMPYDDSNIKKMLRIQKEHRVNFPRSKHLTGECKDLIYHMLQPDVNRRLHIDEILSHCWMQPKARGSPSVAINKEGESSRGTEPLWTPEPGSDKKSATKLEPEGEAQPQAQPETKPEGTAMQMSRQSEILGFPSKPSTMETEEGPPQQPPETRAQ

[8] = biological target: panel of 255 wild-type kinases (Homo sapiens, UniProt Q13627); conditions: read-out: %-inhibition at 1 µmol/L, DYRK1A
[9] = biological target: panel of 255 wild-type kinases (Homo sapiens, UniProt P35968); conditions: read-out: %-inhibition at 1 µmol/L, KDR
[10] = kinase LATS2, 1 µmol/L single concentration
[11] = kinase CK2α1/β, 1 µmol/L single concentration
[12] = kinase IRAK1, 1 µmol/L single concentration
[13] = ABL kinase assay, 1 µmol/L single concentration
[14] = kinase PKN1, 1 µmol/L single concentration
[15] = NDR2, 1 µmol/L single concentration
[16] = kinase TSSK1, 1 µmol/L single concentration
[17] = kinase DYRK1A, 1 µmol/L single concentration
[18] = kinase KDR, 1 µmol/L single concentration

Row | inhibition at 1 µM [3, 12] [%] | inhibition at 1 µM [9, 18] [%] | Compound | inhibition at 1 µM [1, 10] [%] | inhibition at 1 µM [2, 11] [%] | inhibition at 1 µM [4, 13] [%] | inhibition at 1 µM [5, 14] [%] | inhibition at 1 µM [6, 15] [%] | inhibition at 1 µM [7, 16] [%] | inhibition at 1 µM [8, 17] [%] | inhibition at 1 µM [1] [%] | inhibition at 1 µM [2] [%] | inhibition at 1 µM [3] [%] | inhibition at 1 µM [4] [%] | inhibition at 1 µM [5] [%] | inhibition at 1 µM [6] [%] | inhibition at 1 µM [7] [%] | inhibition at 1 µM [8] [%] | inhibition at 1 µM [9] [%]
1 | -8 | 11 | C[C@H](Nc1ncnc2nc[nH]c12)c1cc2cccc(Cl)c2c(=O)n1-c1ccccc1 [duvelisib] | 8 | -2.47 | -2 | 11 | -0.151 | -4 | -3.48 |  |  |  |  |  |  |  |  | 
2 |  |  | CNC(=O)c1ccc(-c2cnc3ncc(Cc4ccc5ncccc5c4)n3n2)cc1F [capmatinib] |  |  |  |  |  |  |  | -7 | -3.18 | 35 | -1.84 | 16 | -5.51 | 3 | -0.902 | 4
3 | -0.211 | 6 | O=C(Nc1cnn2ccc(N3CCC[C@@H]3c3cc(F)ccc3F)nc12)N1CC[C@H](O)C1 [larotrectinib] | -3 | -2.37 | -7 | 7 | -4.33 | 4 | -4.7 |  |  |  |  |  |  |  |  | 
4 | 2.19 | 15 | Cn1cnc2c(F)c(Nc3ccc(Br)cc3F)c(C(=O)NOCCO)cc21 [binimetinib] | -3 | -4.22 | -1.53 | 6 | -1.45 | 0.849 | -8 |  |  |  |  |  |  |  |  | 
5 | 5 |  | COc1ccc(CN2C3CC2CN(c2ccc(-c4cc(OCC(C)(C)O)cn5ncc(C#N)c45)cn2)C3)cn1 [selpercatinib] | -5.4 | -1.82 | 16 | 9 | -4.53 | 45 | 6 |  |  |  |  |  |  |  |  | 99
6 | -5.3 | 8 | Cc1nc(NC(=O)N2CCC[C@H]2C(N)=O)sc1-c1ccnc(C(C)(C)C(F)(F)F)c1 [alpelisib] | -1 | -1.52 | 16 | 8 | -2 | -5 | 6 |  |  |  |  |  |  |  |  | 
7 | 4.63 | 4.29 | Cc1cc(Nc2ncnc3ccc(NC4=NC(C)(C)CO4)cc23)ccc1Oc1ccn2ncnc2c1 [tucatinib] | 0.168 | -4 | -3 | 18 | -0.504 | 2.58 | -3.25 |  |  |  |  |  |  |  |  | 
8 | -2.71 | 2.42 | Cn1cnc2c(F)c(Nc3ccc(Br)cc3Cl)c(C(=O)NOCCO)cc21 [selumetinib] | -3.38 | -5 | -6.58 | 10 | -3.24 | 0.947 | -3.48 |  |  |  |  |  |  |  |  | 
9 | 76 | 42 | COc1cc2ncnc(Nc3ccc(F)c(Cl)c3)c2cc1NC(=O)/C=C/CN1CCCCC1 [dacomitinib] | 11 | -4 |  | 16 | -1.58 | -2.48 | 9 |  |  |  |  |  |  |  |  | 

Row | Compound | inhibition at 1 µM [3, 12] [%] | inhibition at 1 µM [9, 18] [%] | inhibition at 1 µM [1, 10] [%] | inhibition at 1 µM [2, 11] [%] | inhibition at 1 µM [4, 13] [%] | inhibition at 1 µM [5, 14] [%] | inhibition at 1 µM [6, 15] [%] | inhibition at 1 µM [7, 16] [%] | inhibition at 1 µM [8, 17] [%] | inhibition at 1 µM [1] [%] | inhibition at 1 µM [2] [%] | inhibition at 1 µM [3] [%] | inhibition at 1 µM [4] [%] | inhibition at 1 µM [5] [%] | inhibition at 1 µM [6] [%] | inhibition at 1 µM [7] [%] | inhibition at 1 µM [8] [%] | inhibition at 1 µM [9] [%]
10 | COC(=O)N[C@@H](C)CNc1nccc(-c2cn(C(C)C)nc2-c2cc(Cl)cc(NS(C)(=O)=O)c2F)n1 [encorafenib] | 21 | 22 | 3.49 | -1 | -5.41 | 6 | 5 | 3 | 6 |  |  |  |  |  |  |  |  | 
11 | CCN1CCN(c2ccc(Nc3cc(N(C)C(=O)Nc4c(Cl)c(OC)cc(OC)c4Cl)ncn3)cc2)CC1 [infigratinib] |  | 92 | -3.67 | -4 | 10 | 13 | -3.19 | 3.24 | -4 |  |  |  |  |  |  |  |  | 
12 | FC(F)(F)c1ccc(CNc2ccc(Cc3c[nH]c4ncc(Cl)cc34)cn2)cn1 [pexidartinib] | -5 | 81 | 4 | 0.256 | 0.064 | -4.55 | 8 | 12 | 8 |  |  |  |  |  |  |  |  | 
13 | CCc1nc(C(N)=O)c(Nc2ccc(N3CCC(N4CCN(C)CC4)CC3)c(OC)c2)nc1NC1CCOCC1 [gilteritinib] | 84 | 104 | 44 | 15 | 40 | 65 | 66 | 95 | 18 |  |  |  |  |  |  |  |  | 
14 | CCn1c(=O)c(-c2cc(NC(=O)Nc3ccccc3)c(F)cc2Br)cc2cnc(NC)cc21 [ripretinib] | -5.68 | 111 | -0.411 | 1 | 18 | 10 | 2.69 | -4.3 | 1.4 |  |  |  |  |  |  |  |  | 
15 | CN1CCN(c2ccc(C(=O)Nc3n[nH]c4ccc(Cc5cc(F)cc(F)c5)cc34)c(NC3CCOCC3)c2)CC1 [entrectinib] | 16 |  | 18 | 1.84 | 77 | 64 | 51 | 8 | -3.18 |  |  |  |  |  |  |  |  | 
16 | C[C@H]1Oc2cc(cnc2N)-c2c(nn(C)c2C#N)CN(C)C(=O)c2ccc(F)cc21 [lorlatinib] | 10 | 7 | 6 | -2 | -2.34 | 4.68 | 2.18 | 84 | -4.39 |  |  |  |  |  |  |  |  | 
17 | CCN1C(=O)N(c2c(F)c(OC)cc(OC)c2F)Cc2cnc3[nH]c(CN4CCOCC4)cc3c21 [pemigatinib] | -5.31 |  | -3 | -2.8 | 10 | 10 | -1.83 | 8 | -2.67 |  |  |  |  |  |  |  |  | 96

— article PMC9516332 (Frontiers in Oncology, 2022)
